Experimental data as given in patent US6440440B1, “Biocidal benzylbiphenyl derivatives” (priority 1998, dated 2002).
Counter-ions that a name gives are not always drawn.

Experiments:
Type in all cases: cell-based
Escherichia coli = experiment: Primary bacteria screening; parameters: key: score: 3 = complete inhibition of growth, 2 = growth partially controlled; settings: test compound concentration 500 μMol in tryptose broth agar, 27° C.
Method: (§1) The stock solutions with the test compounds were pipetted into multiwell plates and mixed with warm tryptose broth agar (2.6%) in order to reach a test compound concentration of 500 μMol. The medium was allowed to cool and subsequently inoculated with the bacteria. Wells were placed in an incubator at 27° C. and a relative humidity of 70%. After sufficient growth of the untreated cultures, the test was evaluated.
(§2) 3: complete inhibition of bacterial growth
(§3) 2: bacterial growth partially controlled

Pseudomonas aeruginosa = experiment: Primary bacteria screening; parameters: key: score: 3 = complete inhibition of growth, 2 = growth partially controlled; settings: test compound concentration 500 μMol in tryptose broth agar, 27° C.
Method: as §1, §2, §3

Debaryomyces hansenii = experiment: Screening against yeasts; parameters: key: 3 = complete inhibition of growth, 2 = growth partially controlled; settings: test compound concentration 500 μM
Method: as §1, §2, §3
(§4) A number of compounds of formula (I) were also tested in a screening against certain The test conditions are the same as described in biological example C.1. The concentration of the test compound was also 500 μmol, and the scoring system used was also the same.
Debaryomyces hansenii (19)

Rhodotorula rubra = experiment: Screening against yeasts; parameters: key: 3 = complete inhibition of growth, 2 = growth partially controlled; settings: test compound concentration 500 μmol
Method: as §1, §2, §3, §4

Sporobolomyces roseus = experiment: Screening against yeasts; parameters: key: 3 = complete inhibition of growth, 2 = growth partially controlled; settings: test compound concentration 500 μmol
Method: as §1, §2, §3, §4
Sporobolomyces roseus (21)

Providencia rettgeri = experiment: Poison plate assay, combinations with BAC; settings: BAC alone 80 μmol
Method: Biocidal activity against bacterial/yeast growth was determined with the poison plate assay. To obtain the required concentrations of the test compound, calculated amounts of stock solutions (DMSO) were pipetted into multi-well plates. Tryptose agar (except for Rhodotorula: PDA) was added aseptically and uniform distribution was obtained by shaking. Each plate was inoculated with a bacterial/yeast suspension. After incubation at 27° C. and 70% relative humidity, for a period long enough to allow complete growth of controls, percentage activity as compared to the control was scored.
Possible synergy was investigated using Limpel's formula (Richter, D. L., Pestic. Sci. 1987, 19: 309-315): [formula]
where EC is the expected additive response, or calculated activity, X is the observed percentage control when compound A is applied alone and Y is the observed percentage control when compound B is applied alone. Synergy was considered to occur when the observed effect, or measured activity, of a combination of both compounds was greater than the corresponding EC value.
The table C.7 to C.8 below enumerate the measured and calculated activities of BAC and compounds 20, 42 and 40 when tested as a single test compound or as a combination against Providencia rettgeri. BAC (benzalconium chloride) is a well-bacteride and was tested at a concentration of 40 and 80 μmol. Compounds 20, 40 and 42 were tested at a concentration of 10, 20, 40, 80 and 160 μmol. When a synergistic effect was observed, the “measured” and “calculated” activity are indicated with a bold typeface.

Molecule | E. coli (growth inhibition score) (Escherichia coli) | P. aeruginosa (growth inhibition score) (Pseudomonas aeruginosa) | Test yeast (19) Debaryomyces hansenii (score) (Debaryomyces hansenii) | Test yeast (20) Rhodotorula rubra (score) (Rhodotorula rubra) | Test yeast (21) Sporobolomyces roseus (score) (Sporobolomyces roseus) | Measured activity (Providencia rettgeri)
Cl.Cl.Fc1ccc(-c2ccc(C(c3ccccc3)C3CCN(C4CCNCC4)CC3)cc2)cc1.O (racemic) [Co. No. 7, (±)-4-[[4′-fluoro(1,1′-biphenyl)-4-yl]phenylmethyl](1,4′-bipiperidine)dihydro-chloride.monohydrate] | 3 | 3 | 3 | 2 | 3 | –
CN(C)CCC1CCN(CCC(O)(c2ccc(-c3ccccc3)cc2)c2ccc(Cl)cc2Cl)CC1.Cl.Cl (racemic) [Co. No. 34, (±)-α-[(1,1 ′-biphenyl)-4-yl]-a-(2,4-dichlorophenyl)-4-[2-(dimethylamino)ethyl]-1-piperidine-propanol dihydrochloride] | 1 | 1 | – | – | – | –
CN(C)CCCN(C)CCC(c1ccccc1)c1ccc(-c2ccccc2)cc1 (racemic) [Co. No. 38, (±)-N-[3-[(1,1′-biphenyl)-4-yl]-3-phenylpropyl]-N,N′,N′-trimethylpropanediamine] | 1 | 1 | – | – | – | –
CNCCCN(C)CCCN(C)C(c1ccccc1)c1ccc(-c2ccccc2)cc1 (racemic) [Co. No. 52, (±)-N-[[(1,1′-biphenyl)4-yl]phenylmethyl]-N,N′-dimethyl-N′-[3-(methylamino)propyl]-1,3-propanediamine trihydrochloride] | 3 | 1 | 3 | 3 | 3 | –
CNCCNCCC(c1ccccc1)c1ccc(-c2ccccc2)cc1.Cl.Cl (racemic) [Co. No. 56, (±)-N-[3-([1,1′-biphenyl]-4-yl)-3-phenylpropyl]-N′-methyl-1,2-ethanediamine dihydrochloride] | 3 | 1 | – | – | – | –
Cl.Cl.c1ccc(-c2ccc(C(c3ccccc3)C3CCN(C4CCNCC4)CC3)cc2)cc1 (single isomer, unassigned) [compound 22] | 3 | 1 | 3 | 1 | 3 | –
c1ccc(-c2ccc(C(c3ccccc3)C3CCN(C4CCNCC4)CC3)cc2)cc1 (single isomer, unassigned) [compound 23] | 1 | 3 | 3 | 3 | 3 | –
NCCCNCCC(c1ccccc1)c1ccc(-c2ccccc2)cc1.NCCCNCCC(c1ccccc1)c1ccc(-c2ccccc2)cc1.O=C(O)C(O)C(O)C(=O)O.O=C(O)C(O)C(O)C(=O)O.O=C(O)C(O)C(O)C(=O)O (single isomer, unassigned) [compound 69] | 3 | 1 | – | – | – | –
NCCCN1CCC(C(c2ccccc2)c2ccc(-c3ccccc3)cc2)CC1.NCCCN1CCC(C(c2ccccc2)c2ccc(-c3ccccc3)cc2)CC1.O.O.O=C(O)C(O)C(O)C(=O)O.O=C(O)C(O)C(O)C(=O)O.O=C(O)C(O)C(O)C(=O)O (single isomer, unassigned) [compound 84] | 3 | 3 | – | – | – | –
CC(C)O.Cl.Cl.Fc1ccc(C(=C2CCN(C3CCNCC3)CC2)c2ccc(-c3ccccc3)cc2)cc1 [Co. No. 2, 4-[[(1,1′-biphenyl)-4-yl](4-fluorophenyl)methylen](1,4′-bipiperidine)dihydrochloride 2-propanolate (1:1)] | 3 | 1 | – | – | – | –
Cl.Cl.NCCCN1CCC(C(c2ccccc2)c2ccc(-c3ccccc3)cc2)CC1.O.O.O.O (centres unmarked) [Co. No. 78, (A)-4-[([1,1′-biphenyl]-4-yl)phenylmethyl]-1-piperidinepropanamine dihydrochloride tetrahydrate] | 3 | 3 | – | – | – | –
Fc1ccc(C(=C2CCN(C3CCNCC3)CC2)c2ccc(-c3ccc(F)cc3)cc2)cc1.O=C(O)/C=C/C(=O)O.O=C(O)/C=C/C(=O)O [compound 1] | 3 | 1 | – | – | – | –
Cl.Cl.c1ccc(C(=C2CCN(C3CCNCC3)CC2)c2ccc(-c3ccccc3)cc2)cc1 [compound 3] | 1 | 1 | – | – | – | –
Cl.Fc1ccc(-c2ccc(C(=C3CCN(C4CCNCC4)CC3)c3ccccc3)cc2)cc1 [compound 5] | 2 | 1 | – | – | – | –
Cl.Cl.Fc1ccc(-c2ccc(C(c3ccc(Cl)cc3)C3CCN(C4CCNCC4)CC3)cc2)cc1 (centres unmarked) [compound 8] | 3 | 3 | – | – | – | –
O=S(=O)(O)c1ccc(-c2ccc(C(c3ccc(S(=O)(=O)O)cc3)C3CCN(C4CCNCC4)CC3)cc2)cc1 (centres unmarked) [compound 10] | 1 | 1 | – | – | – | –
CN(C)CCCN1CCC(N2CCC(C(c3ccccc3)c3ccc(-c4ccccc4)cc3)CC2)CC1.Cl.Cl.Cl (centres unmarked) [compound 15] | 1 | 1 | – | – | – | –

Molecule | E. coli (growth inhibition score) (Escherichia coli) | P. aeruginosa (growth inhibition score) (Pseudomonas aeruginosa) | Test yeast (19) Debaryomyces hansenii (score) (Debaryomyces hansenii) | Test yeast (20) Rhodotorula rubra (score) (Rhodotorula rubra) | Test yeast (21) Sporobolomyces roseus (score) (Sporobolomyces roseus) | Measured activity (Providencia rettgeri)
CN1CCC(N2CCC(C(c3ccccc3)c3ccc(-c4ccccc4)cc3)CC2)CC1 (centres unmarked) [compound 19] | 1 | 1 | – | – | – | –
CN(C)CCC1CCN(CC=C(c2ccccc2)c2ccc(-c3ccccc3)cc2)CC1.Cl.Cl [compound 24] | 1 | 1 | – | – | – | –
CN(C)CCC1CCN(CCC(c2ccccc2)c2ccc(-c3ccccc3)cc2)CC1.Cl.Cl (centres unmarked) [compound 28] | 1 | 1 | – | – | – | –
CN(C)C1CCN(CCC(c2ccccc2)c2ccc(-c3ccccc3)cc2)CC1 (centres unmarked) [compound 32] | 1 | 1 | – | – | – | –
CN(C)CCCN(C)CC=C(c1ccccc1)c1ccc(-c2ccccc2)cc1 [compound 35] | 3 | 1 | – | – | – | –
CN(C)CCCNCC=C(c1ccccc1)c1ccc(-c2ccccc2)cc1 [compound 36] | 1 | 1 | – | – | – | –
CN(C)CCNCC=C(c1ccccc1)c1ccc(-c2ccccc2)cc1 [compound 37] | 1 | 1 | – | – | – | –
CC(C)O.Cl.Cl.Cl.O.c1ccc(-c2ccc(C(c3ccccc3)C3CCN(C4CCN(C5CCNCC5)CC4)CC3)cc2)cc1 (centres unmarked) [compound 44] | 3 | 1 | – | – | – | –
Cl.c1ccc(-c2ccc(C(c3ccccc3)N3CCC(N4CCCCC4)CC3)cc2)cc1 (centres unmarked) [compound 45] | 1 | 1 | – | – | – | –
CN(C1CCN(C2CCNCC2)CC1)C(c1ccccc1)c1ccc(-c2ccccc2)cc1.O.O (centres unmarked) [compound 48] | 1 | 1 | – | – | – | –
CN(CCCN)CCCNC(c1ccccc1)c1ccc(-c2ccccc2)cc1.O=C(O)C(=O)O.O=C(O)C(=O)O.O=C(O)C(=O)O (centres unmarked) [compound 53] | 3 | 1 | – | – | – | –
CN(C)CCCN(C)CCCN(C)C(c1ccccc1)c1ccc(-c2ccccc2)cc1.Cl.Cl.Cl.O (centres unmarked) [compound 54] | 3 | 1 | – | – | – | –
NCCCNCCC(c1ccccc1)c1ccc(-c2ccccc2)cc1.NS(=O)(=O)O.NS(=O)(=O)O (centres unmarked) [compound 67] | 3 | 2 | – | – | – | –
CN(CCN)CCC(c1ccccc1)c1ccc(-c2ccccc2)cc1.O=c1[nH]sc2ccccc12 (centres unmarked) [compound 73] | 3 | 3 | – | – | – | –
CN(C1CCNCC1)C1CCN(CCC(c2ccccc2)c2ccc(-c3ccccc3)cc2)CC1.Cl.Cl.Cl.O.O.O (centres unmarked) [compound 89] | 3 | 1 | – | – | – | –
benzalconium chloride [BAC, reference compound] | – | – | – | – | – | 100%
